In the test the target is T1, human PKR1 receptors (Homo sapiens, UniProt Q8TCW9).
T1 construct: expressed in transfected cells; host or cells: RBL2H3 cells (rat basophilic leukaemia line) expressing human PKR1
T1 sequence (Q8TCW9 whole entry): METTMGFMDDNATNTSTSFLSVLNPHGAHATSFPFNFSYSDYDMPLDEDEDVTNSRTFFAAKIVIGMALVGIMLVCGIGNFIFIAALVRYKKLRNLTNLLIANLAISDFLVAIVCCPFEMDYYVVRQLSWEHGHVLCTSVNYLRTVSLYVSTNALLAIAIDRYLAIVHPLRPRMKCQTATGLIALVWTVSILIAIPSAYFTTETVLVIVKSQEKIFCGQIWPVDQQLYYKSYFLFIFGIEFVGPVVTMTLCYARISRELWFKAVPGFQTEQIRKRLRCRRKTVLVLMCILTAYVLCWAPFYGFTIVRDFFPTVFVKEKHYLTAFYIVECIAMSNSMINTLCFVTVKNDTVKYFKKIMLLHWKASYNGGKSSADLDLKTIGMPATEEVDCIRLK
Description: PKR1 antagonist assay: block of PK1-mediated intracellular calcium release (FLIPR Tetra, Calcium 5 dye). In kind it is cell-based. The note with it: RBL2H3 cells expressing human PKR1; 10 min pre-incubation, stimulation with PK1 at EC80; calcium fluorescence. As to the method:
Prokineticin receptor 1 (PKR1) antagonists may be functionally assessed by measurement of change in intracellular calcium levels induced by Gq mediated increase in inositol triphosphate (IP3) levels. The ability of a compound to block the intracellular release of calcium mediated by PK1 in RBL2H3 cells expressing human PKR1 receptors is determined as a measure of the compound's antagonist activity in vitro.
Approximately 10,000 cells per assay well are seeded in normal culture medium in a 384 well plate (Corning). Twenty-four hours after seeding, the cells are loaded with a calcium sensitive fluorescent dye by replacing the culture medium with assay buffer (1× Hanks buffered saline, 25 mM HEPES, 0.1% w/v fatty acid free BSA (bovine serum albumin), pH 7.4) containing 1 mM probenecid and 1× Calcium 5 Reagent (Molecular Devices). Cells are incubated at 37° C. for 1 hour to allow for dye uptake.
To test for antagonist activity, test compounds at a final concentration range between 0.32 nM-10 μM (diluted in assay buffer) are added to the assay wells and allowed to incubate for 10 minutes prior to stimulation with PK1. After incubation with test compounds the assay plate is placed in a FLIPR Tetra (Molecular Devices) and PK1 (diluted in assay buffer) is added at the determined EC80 concentration (final). Ligand-dependent changes in intracellular calcium levels are determined by measuring changes in fluorescence of the dye at […] following excitation at 485 nm.
For the molecule `COC(c1ccc(Cl)cc1)C1CCN(S(=O)(=O)c2c(C)n[nH]c2C)CC1` (single isomer, unassigned) [Example 98, 4-((4-Chlorophenyl)(methoxy)methyl)-1-((3,5-dimethyl-1H-pyrazol-4-yl)sulfonyl)piperidine], the 50% inhibitory concentration (IC50) stood at 0.16 µM.

Take `Cc1nn(C)c(C)c1S(=O)(=O)N1CCC(Oc2ccc(Cl)cc2F)CC1` [Example 30, 4-(4-Chloro-2-fluorophenoxy)-1-(trimethyl-1H-pyrazole-4-sulfonyl)piperidine]: the concentration for half-maximal inhibition (IC50) is 0.51 µM.

`Cc1nn(C)c(C)c1S(=O)(=O)N1CCC(Oc2ccc(F)cc2)CC1` [Example 20, 4-(4-Fluorophenoxy)-1-[(1,3,5-trimethyl-1H-pyrazol-4-yl)sulfonyl]piperidine]: the IC50 is 3.6 µM.

Turning to `COC(c1ccccc1)C1CCN(S(=O)(=O)c2c(C)n[nH]c2C)CC1` (centres unmarked) [Example 110, 1-((3,5-Dimethyl-1H-pyrazol-4-yl)sulfonyl)-4-(methoxy(phenyl)methyl)piperidine], the IC50 came to 3.01 µM.

As for `CCc1nn(C)c(CC)c1S(=O)(=O)N1CCC(Oc2ccc(Cl)cc2Cl)CC1` [Example 28, 4-(2,4-Dichlorophenoxy)-1-[(3,5-diethyl-1-methyl-1H-pyrazol-4-yl)sulfonyl]piperidine], the IC50 came to 0.32 µM.

On to `Cc1n[nH]c(C)c1S(=O)(=O)N1CCC(Cc2ccc(Cl)c(F)c2)CC1` [Example 71, 4-(4-Chloro-3-fluorobenzyl)-1-((3,5-dimethyl-1H-pyrazol-4-yl)sulfonyl)piperidine], for which the IC50 came to 0.78 µM.

On to `Cc1nn(C)c(C)c1S(=O)(=O)N1CCC(Oc2ccc(Cl)cc2)CC1C` (centres unmarked) [Example 24, 4-(4-Chlorophenoxy)-2-methyl-1-[(1,3,5-trimethyl-1H-pyrazol-4-yl)sulfonyl]piperidine], for which the IC50 is 1.5 µM.

As to `CCOC(=O)C1(Cc2ccc(Br)cc2)CCN(S(=O)(=O)c2c(C)n[nH]c2C)CC1` [Example 62, Ethyl 4-(4-bromobenzyl)-1-((3,5-dimethyl-1H-pyrazol-4-yl)sulfonyl)piperidine-4-carboxylate], the IC50 amounted to 0.68 µM.

For the molecule `Cc1nn(C)c(C)c1S(=O)(=O)N1CCC(Cc2ccc(Cl)c(Cl)c2)CC1` [Example 56, 4-(3,4-Dichlorobenzyl)-1-((1,3,5-trimethyl-1H-pyrazol-4-yl)sulfonyl)piperidine], the 50% inhibitory concentration (IC50) stood at 0.95 µM.

`Cc1nn(C)c(C)c1S(=O)(=O)N1CCC(F)(Cc2ccc(Cl)cc2F)CC1` [Example 81, 4-(4-Chloro-2-fluorobenzyl)-4-fluoro-1-((1,3,5-trimethyl-1H-pyrazol-4-yl)sulfonyl)piperidine]: the IC50 worked out at 0.67 µM.

`Cc1n[nH]c(C)c1S(=O)(=O)N1CCC(F)(Cc2ccc(Cl)cc2F)CC1` [Example 80, 4-(4-Chloro-2-fluorobenzyl)-1-((3,5-dimethyl-1H-pyrazol-4-yl)sulfonyl)-4-fluoropiperidine]: the IC50 is 0.81 µM.

`COCC(c1ccc(Cl)cc1)C1CCN(S(=O)(=O)c2c(C)n[nH]c2C)CC1` (centres unmarked) [Example 109, 4-(1-(4-Chlorophenyl)-2-methoxyethyl)-1-((3,5-dimethyl-1H-pyrazol-4-yl)sulfonyl)piperidine]: the IC50 turned out to be 1.86 µM.

For `Cc1n[nH]c(C)c1S(=O)(=O)N1CCC(Cc2ccc(Cl)cc2)CC1` [Example 67, 4-(4-Chlorobenzyl)-1-((3,5-dimethyl-1H-pyrazol-4-yl)sulfonyl)piperidine], the IC50 worked out at 0.52 µM.

With `COc1cc(Cl)ccc1CC1(OC)CCN(S(=O)(=O)c2c(C)n[nH]c2C)CC1` [Example 86, 4-(4-Chloro-2-methoxybenzyl)-1-((3,5-dimethyl-1H-pyrazol-4-yl)sulfonyl)-4-methoxypiperidine], the IC50 turned out to be 4.6 µM.

Take `Cc1nn(C)c(Cl)c1S(=O)(=O)N1CCC(Cc2ccc(Cl)cc2)CC1` [Example 68, 1-((5-Chloro-1,3-dimethyl-1H-pyrazol-4-yl)sulfonyl)-4-(4chlorobenzyl)piperidine]: the half-inhibitory concentration (IC50) amounted to 2.02 µM.

`Cc1n[nH]c(C)c1S(=O)(=O)N1CCC(Nc2ccc(Cl)cc2)CC1` [Example 103, N-(4-Chlorophenyl)-1-((3,5-dimethyl-1H-pyrazol-4-yl)sulfonyl)piperidin-4-amine]: the half-inhibitory concentration (IC50) is 1.76 µM.

With `Cc1n[nH]c(C)c1S(=O)(=O)N1CCC(Oc2ccc(Cl)cc2C(F)(F)F)CC1` [Example 40, 4-[4-Chloro-2-(trifluoromethyl)phenoxy]-1-(3,5-dimethyl-1H-pyrazole-4-sulfonyl)piperidine], the half-inhibitory concentration (IC50) came to 0.21 µM.

For the molecule `COC(c1ccc(Cl)cc1)C1CCN(S(=O)(=O)c2c(C)n[nH]c2C)CC1` (single isomer, unassigned) [Example 97, 4-((4-Chlorophenyl)(methoxy)methyl)-1-((3,5-dimethyl-1H-pyrazol-4-yl)sulfonyl)piperidine], the IC50 was 4.62 µM.

On to `COc1cc(Cl)ccc1CC1(F)CCN(S(=O)(=O)c2c(C)n[nH]c2C)CC1` [Example 90, 4-(4-Chloro-2-methoxybenzyl)-1-((3,5-dimethyl-1H-pyrazol-4-yl)sulfonyl)-4-fluoropiperidine], for which the 50% inhibitory concentration (IC50) came out at 0.17 µM.

With `Cc1n[nH]c(C)c1S(=O)(=O)N1CCC(C(c2ccc(Cl)cc2)C(F)F)CC1` (centres unmarked) [Example 111, 4-(1-(4-Chlorophenyl)-2,2-difluoroethyl)-1-((3,5-dimethyl-1H-pyrazol-4-yl)sulfonyl)piperidine], the IC50 came out at 0.34 µM.

For the molecule `CCn1nc(C)c(S(=O)(=O)N2CCC(Oc3ccc(C)cc3)CC2)c1C` [Example 9, 1-[(1-Ethyl-3,5-dimethyl-1H-pyrazol-4-yl)sulfonyl]-4-(4-methylphenoxy)piperidine], the concentration for half-maximal inhibition (IC50) came out at 2.3 µM.

Regarding `COc1cc(Cl)ccc1CC1(F)CCN(S(=O)(=O)c2c(C)nn(C)c2C)CC1` [Example 91, 4-(4-Chloro-2-methoxybenzyl)-4-fluoro-1-((1,3,5-trimethyl-1H-pyrazol-4-yl)sulfonyl)piperidine], the IC50 was 0.14 µM.

As for `Cc1n[nH]c(C)c1S(=O)(=O)N1CCC(Oc2ccc(Cl)cc2F)CC1` [Example 35, 4-(4-Chloro-2-fluorophenoxy)-1-(3,5-dimethyl-1H-pyrazole-4-sulfonyl)piperidine], the IC50 was 1.1 µM.

Regarding `COC1(Cc2ccc(Cl)cc2)CCN(S(=O)(=O)c2c(C)nn(C)c2C)CC1` [Example 58, 4-(4-Chlorobenzyl)-4-methoxy-1-((1,3,5-trimethyl-1H-pyrazol-4-yl)sulfonyl)piperidine], the IC50 was 2.4 µM.

For the molecule `Cc1n[nH]c(C)c1S(=O)(=O)N1CCC(Cc2ccc(Cl)cc2F)CC1` [Example 82, 4-(4-Chloro-2-fluorobenzyl)-1-((3,5-dimethyl-1H-pyrazol-4-yl)sulfonyl)piperidine], the 50% inhibitory concentration (IC50) came to 1.02 µM.

Take `Cc1ccc(OC2CCN(S(=O)(=O)c3c(C)nn(C)c3Cl)CC2)cc1` [Example 11, 1-[(5-Chloro-1,3-dimethyl-1H-pyrazol-4-yl)sulfonyl]-4-(4-methylphenoxy)piperidine]: the half-inhibitory concentration (IC50) turned out to be 0.86 µM.

As to `Cc1nn(C)c(C)c1S(=O)(=O)N1CCC(Oc2ccc(Cl)c(F)c2)CC1` [Example 45, 4-(4-Chloro-3-fluorophenoxy)-1-(trimethyl-1H-pyrazole-4-sulfonyl)piperidine], the half-maximal inhibitory concentration (IC50) was 1.4 µM.

As to `Cc1n[nH]c(C)c1S(=O)(=O)N1CCC(Oc2ccccc2F)CC1` [Example 76, 1-((3,5-Dimethyl-1H-pyrazol-4-yl)sulfonyl)-4-(2-fluorophenoxy)piperidine], the IC50 is 3.73 µM.

With `Cc1n[nH]c(C)c1S(=O)(=O)N1CCC(C#N)(Cc2ccc(Cl)cc2)CC1` [Example 64, 4-(4-Chlorobenzyl)-1-((3,5-dimethyl-1H-pyrazol-4-yl)sulfonyl)piperidine-4-carbonitrile], the IC50 amounted to 0.89 µM.

Take `Cc1cccc(C)c1OC1CCN(S(=O)(=O)c2c(C)n[nH]c2C)CC1` [Example 38, 1-(3,5-Dimethyl-1H-pyrazole-4-sulfonyl)-4-(2,6-dimethylphenoxy)piperidine]: the IC50 worked out at 3.2 µM.

`Cc1n[nH]c(C)c1S(=O)(=O)N1CCC(C(C)c2ccc(Cl)cc2)CC1` (centres unmarked) [Example 102, 4-(1-(4-Chlorophenyl)ethyl)-1-((3,5-dimethyl-1H-pyrazol-4-yl)sulfonyl)piperidine]: the half-inhibitory concentration (IC50) is 0.47 µM.

Consider `Cc1ccc(OC2CCN(S(=O)(=O)c3c(C(F)(F)F)nn(C)c3C)CC2)cc1` [Example 10, 1-{[1,5-Dimethyl-3-(trifluoromethyl)-1H-pyrazol-4-yl]sulfonyl}-4-(4-methylphenoxy)piperidine], for which the 50% inhibitory concentration (IC50) is 1.7 µM.

`COc1cc(Cl)cnc1OC1CCN(S(=O)(=O)c2c(C)n[nH]c2C)CC1` [Example 85, 5-Chloro-2-((1-((3,5-dimethyl-1H-pyrazol-4-yl)sulfonyl)piperidin-4-yl)oxy)-3-methoxypyridine]: the half-maximal inhibitory concentration (IC50) came out at 1.23 µM.

Turning to `Cc1n[nH]c(C)c1S(=O)(=O)N1CCC(C(O)c2ccc(Cl)cc2)CC1` (centres unmarked) [Example 94], the IC50 came out at 1.74 µM.

In the case of `COc1cc(Cl)ccc1CC1(OC)CCN(S(=O)(=O)c2c(C)nn(C)c2C)CC1` [Example 87, 4-(4-Chloro-2-methoxybenzyl)-4-methoxy-1-((1,3,5-trimethyl-1H-pyrazol-4-yl)sulfonyl)piperidine], the IC50 worked out at 5.88 µM.

Values taken from US20130324576A1, “THERAPEUTIC COMPOUNDS” (Takeda Pharmaceutical Company Limited, priority 2012, published 2013).
